Values joined by “and” are separate entries in the source; they are usually repeats but may differ in a detail not shown here. Identical values can stand only once. Like-named read-outs stand apart in the source and are kept apart here. Where a SMILES comes first, the peptide text is derived from it. [ ]: non-standard residue; d: D form. Arg(Me) = CNC(=N)NCCC[C@H](N)C(=O)O; Hyp = O=C(O)[C@@H]1C[C@@H](O)CN1; azaGly = NNC(=O)O
How the values were obtained:
[1] = Single dose PK, phase 1, healthy Japanese men; type: in vivo, human; settings: for AUC(0-inf) / CL/F / Cmax / half-life / Tmax / dose excreted: male, human; for AUC(0-inf) / CL/F / Cmax / half-life / Tmax: plasma; for dose excreted: urine
Protocol: Thirty-seven healthy Japanese male subjects aged 50 to 74 years were enrolled into nine cohorts. Subjects enrolled in the first […] cohorts received 0.001, 0.004, 0.01, 0.04, 0.1, 0.25 or 0.5 mg of API-MA or placebo by single SC bolus. In the 0.001 mg cohort, 3 subjects received API-MA and two received placebo. In the remaining cohorts, 3 subjects received API-MA and one received placebo. Subjects enrolled in the eighth and ninth cohorts received 0.25 or 0.5 mg of API-MA or placebo by single 2-hour SC infusion. In both cohorts, 3 subjects received API-MA and one received placebo. The plasma PK analysis set consisted of 31 subjects (bolus cohorts: 25; infusion cohorts: 6), and the urine PK analysis set consisted of 35 subjects (bolus cohorts: 27; infusion cohorts: 8).
To measure urinary excretion of API-MA, urine specimens were collected at the following nominal times: predose, 0 to 4, 4 to 8, 8 to 12, 12 to 24, 24 to 36, 36 to 48 and 48 to 72 hours postdose.

[2] = tested on: serum LH and PSA; assay: 1-month depot pharmacodynamics, prostate cancer patients; type: in vivo, human
Protocol: Nine patients with prostate cancer were enrolled in another study, three in each dose group (6, 12, and 24 mg). Patients received API-MA as a single 1-month depot injection that was intended to initiate both a high-burst release of API-MA and rapid stimulation of hypothalamic-pituitary-gonadal axis. Overall, 4 of 9 patients received concomitant GnRH therapy. Assessments of pharmacodynamics included LH concentrations and serum PSA concentrations. Results were grouped based on patients who were or were not receiving concomitant GnRH therapy.

[3] = molecular target: human KISS1R (Homo sapiens, UniProt Q969F8); assay: Competitive binding assay, human KISS1R; set-up: expressed in transfected cells
Description: The binding affinity of API-MA to membrane fractions of KISS1R-expressing recombinant cells was examined in a competitive binding assay.

[4] = tested on: serum LH and FSH; assay: Multiple-dose pharmacodynamics, continuous SC infusion, European men; type: in vivo, human
Protocol: This study was a phase 1 study of multiple-day, continuous SC infusions of API-MA to 30 healthy European men over age 50. […] Five to six men received active API-MA, and 1 to 2 men received placebo per dose level cohort. The pharmacodynamics of the following hormones were assessed: LH and FSH.
The SC infusion was started 24 hours after the bolus injection; all specimens collected after the 24-hour time point were collected during the SC infusion. Blood specimens were also collected on days 16, 17, 21, 28 and 44 to monitor the return of the hormone concentrations to baseline values.

[5] = molecular target: CYP3A4 (Homo sapiens, UniProt P08684); assay: Inhibition of recombinant CYP3A4; type: in vitro ADME
[6] = In vitro distribution into blood cells, rats; type: in vitro ADME
Protocol: The in vitro distribution ratios of [^14C]API-MA into the blood cells at the concentrations of 0.01, 0.1, 1, and 10 μg/mL API-FB (free form) were 7.8%, 8.0%, 7.1%, and 4.8% for rats, 2.4%, 2.0%, 1.6%, and 1.2% for dogs, and 2.0%, 0.0%, 0.0%, and 0.5% for humans, respectively. […] The in vitro plasma protein binding ratios of [^14C]API-FB in rats, dogs, monkeys, and humans were determined by the ultracentrifugation method. In addition, the protein binding to human serum albumin (HSA), α1-acid glycoprotein (AGP), and HSA/AGP was investigated. […] In rats and dogs, a slight decrease in the binding ratio at the concentration range between 0.1 and 1.0 μg/mL API-FB was observed. In monkeys and humans, the binding was independent of the drug concentrations from 0.01 to 10 μg/mL API-FB.

[7] = rat, in vivo; cited from earlier work
[8] = sc, 0.001 mg, single SC bolus 0.001 mg, mean
[9] = sc, 0.004 mg, single SC bolus 0.004 mg, mean
[10] = sc, 0.01 mg, single SC bolus 0.01 mg, mean
[11] = sc, 0.04 mg, single SC bolus 0.04 mg, mean
[12] = sc, 0.1 mg, single SC bolus 0.1 mg, mean
[13] = sc, 0.25 mg, single 2-hour SC INF 0.25 mg (plasma N = 1)
[14] = sc, 0.25 mg, single SC bolus 0.25 mg, mean
[15] = sc, 0.5 mg, single 2-hour SC INF 0.5 mg, mean
[16] = sc, 0.5 mg, single SC bolus 0.5 mg, mean

Chain of CYP3A4 (P08684 whole entry): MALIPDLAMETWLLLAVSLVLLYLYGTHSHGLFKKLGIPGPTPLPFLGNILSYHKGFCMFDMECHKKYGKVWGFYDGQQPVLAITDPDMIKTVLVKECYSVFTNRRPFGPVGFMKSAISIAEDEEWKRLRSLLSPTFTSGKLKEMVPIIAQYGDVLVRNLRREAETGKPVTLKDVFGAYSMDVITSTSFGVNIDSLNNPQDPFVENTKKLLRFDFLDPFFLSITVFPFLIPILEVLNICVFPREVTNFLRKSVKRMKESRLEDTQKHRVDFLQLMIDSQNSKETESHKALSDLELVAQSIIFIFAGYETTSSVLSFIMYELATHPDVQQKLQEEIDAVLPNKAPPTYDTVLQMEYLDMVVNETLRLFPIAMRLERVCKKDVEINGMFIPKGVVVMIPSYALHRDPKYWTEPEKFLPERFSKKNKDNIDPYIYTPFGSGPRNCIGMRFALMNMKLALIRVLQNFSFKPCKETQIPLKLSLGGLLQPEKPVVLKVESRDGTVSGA
Chain of human KISS1R (Q969F8 whole entry): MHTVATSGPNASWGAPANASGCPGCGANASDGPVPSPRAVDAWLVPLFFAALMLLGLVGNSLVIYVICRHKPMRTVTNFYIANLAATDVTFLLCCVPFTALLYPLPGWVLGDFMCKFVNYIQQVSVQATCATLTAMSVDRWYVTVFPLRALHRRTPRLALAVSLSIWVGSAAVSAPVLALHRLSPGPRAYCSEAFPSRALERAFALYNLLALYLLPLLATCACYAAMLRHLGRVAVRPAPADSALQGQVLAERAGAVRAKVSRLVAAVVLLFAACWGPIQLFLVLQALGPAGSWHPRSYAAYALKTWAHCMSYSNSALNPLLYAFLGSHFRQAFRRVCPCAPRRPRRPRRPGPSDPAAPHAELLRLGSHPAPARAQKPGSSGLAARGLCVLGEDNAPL

Question: Which results are given for `CC(=O)O.CNC(=N)NCCC[C@H](NC(=O)[C@H](CC(C)C)NC(=O)NNC(=O)[C@H](Cc1ccccc1)NC(=O)[C@@H](NC(=O)[C@H](CC(N)=O)NC(=O)[C@@H]1C[C@@H](O)CN1C(=O)[C@@H](Cc1ccc(O)cc1)NC(C)=O)[C@@H](C)O)C(=O)N[C@@H](Cc1c[nH]c2ccccc12)C(N)=O` [API-MA, 2-(N-Acetyl-D-tyrosyl-trans-4-hydroxy-L-prolyl-Lasparaginyl-L-threonyl-L-phenylalanyl)-hydrazinocarbonyl-L-leucyl-Nω-methyl-L-arginyl-L-tryptophanamide monoacetate] (Ac-[dY][Hyp]NTF[azaGly]L[Arg(Me)]W-NH2)?
Answer: Time by which urinary excretion was essentially complete ([1]; cumulative urinary excretion): ≤ 24 h; AUC(0-inf) [1, 8]: 0.0541 ng·h/mL; CL/F [1, 8]: 310 mL/min; Cmax [1, 8]: 0.0201 ng/mL; half-life ([1]; sc, 0.001 mg, single SC bolus 0.001 mg, mean, read-out: T½ (converted)): 1.59 h; Tmax ([1]; sc, 0.001 mg, single SC bolus 0.001 mg, read-out: Tmax, median (range)): 0.5 h; AUC(0-inf) [1, 9]: 0.205 ng·h/mL; CL/F [1, 9]: 330 mL/min; Cmax [1, 9]: 0.00617 ng/mL; half-life ([1]; sc, 0.004 mg, single SC bolus 0.004 mg, mean, read-out: T½ (converted)): 1.91 h; Tmax ([1]; sc, 0.004 mg, single SC bolus 0.004 mg, read-out: Tmax, median (range)): 0.5 h; AUC(0-inf) [1, 10]: 0.671 ng·h/mL; CL/F [1, 10]: 250 mL/min; Cmax [1, 10]: 0.221 ng/mL; half-life ([1]; sc, 0.01 mg, single SC bolus 0.01 mg, mean, read-out: T½ (converted)): 1.82 h; Tmax ([1]; sc, 0.01 mg, single SC bolus 0.01 mg, read-out: Tmax, median (range)): 0.5 h; AUC(0-inf) [1, 11]: 2.61 ng·h/mL; CL/F [1, 11]: 278 mL/min; Cmax [1, 11]: 0.966 ng/mL; half-life ([1]; sc, 0.04 mg, single SC bolus 0.04 mg, mean, read-out: T½ (converted)): 3.35 h; Tmax ([1]; sc, 0.04 mg, single SC bolus 0.04 mg, read-out: Tmax, median (range)): 0.5 h; AUC(0-inf) [1, 12]: 5.79 ng·h/mL; CL/F [1, 12]: 298 mL/min; Cmax [1, 12]: 2.42 ng/mL; half-life ([1]; sc, 0.1 mg, single SC bolus 0.1 mg, mean, read-out: T½ (converted)): 3.58 h; Tmax ([1]; sc, 0.1 mg, single SC bolus 0.1 mg, read-out: Tmax, median (range)): 0.375 h; AUC(0-inf) [1, 13]: 13.3 ng·h/mL; CL/F [1, 13]: 313 mL/min; Cmax [1, 13]: 4.02 ng/mL; Tmax ([1]; sc, 0.25 mg, single 2-hour SC INF 0.25 mg (plasma N = 1), read-out: Tmax, median (range)): 2.25 h; half-life ([1]; sc, 0.25 mg, single 2-hour SC INF 0.25 mg (plasma N = 1), read-out: T½ (converted)): 3.77 h; AUC(0-inf) [1, 14]: 18.3 ng·h/mL; CL/F [1, 14]: 228 mL/min; Cmax [1, 14]: 5.9 ng/mL; half-life ([1]; sc, 0.25 mg, single SC bolus 0.25 mg, mean, read-out: T½ (converted)): 4.09 h; Tmax ([1]; sc, 0.25 mg, single SC bolus 0.25 mg, read-out: Tmax, median (range)): 0.75 h; AUC(0-inf) [1, 15]: 34.6 ng·h/mL; CL/F [1, 15]: 243 mL/min; Cmax [1, 15]: 8.23 ng/mL; half-life ([1]; sc, 0.5 mg, single 2-hour SC INF 0.5 mg, mean, read-out: T½ (converted)): 4.02 h; Tmax ([1]; sc, 0.5 mg, single 2-hour SC INF 0.5 mg, read-out: Tmax, median (range)): 2.5 h; AUC(0-inf) [1, 16]: 30 ng·h/mL; CL/F [1, 16]: 282 mL/min; Cmax [1, 16]: 9.05 ng/mL; half-life ([1]; sc, 0.5 mg, single SC bolus 0.5 mg, mean, read-out: T½ (converted)): 4.27 h; Tmax ([1]; sc, 0.5 mg, single SC bolus 0.5 mg, read-out: Tmax, median (range)): 0.5 h; Tmax ([1]; sc, SC bolus, read-out: Median Tmax, range over cohorts): 0.375 to 0.75 h; half-life ([1]; subcutaneous, 0.5 mg, 0.25 and 0.5 mg, read-out: Mean T1/2 at the highest doses): 3.77 to 4.27 h; dose excreted ([1]; sc, 0.001 mg, single SC bolus 0.001 mg, mean, read-out: Fe (urine)): 0%; dose excreted ([1]; sc, 0.004 mg, single SC bolus 0.004 mg, mean, read-out: Fe (urine)): 6.16%; dose excreted ([1]; sc, 0.01 mg, single SC bolus 0.01 mg, mean, read-out: Fe (urine)): 5.4%; dose excreted ([1]; sc, 0.04 mg, single SC bolus 0.04 mg, mean, read-out: Fe (urine)): 4.24%; dose excreted ([1]; sc, 0.1 mg, single SC bolus 0.1 mg, mean, read-out: Fe (urine)): 5.2%; dose excreted ([1]; sc, 0.25 mg, single 2-hour SC INF 0.25 mg, mean, read-out: Fe (urine)): 6.21%; dose excreted ([1]; sc, 0.25 mg, single SC bolus 0.25 mg, mean, read-out: Fe (urine)): 7.1%; dose excreted ([1]; sc, 0.5 mg, single 2-hour SC INF 0.5 mg, mean, read-out: Fe (urine)): 5.22%; dose excreted ([1]; sc, 0.5 mg, single SC bolus 0.5 mg, mean, read-out: Fe (urine)): 6.33%; dose excreted ([1]; sc, 0.004 to 0.5 mg, bolus and infusion, read-out: Mean Fe, range over cohorts): 4.24 to 7.1%; API-MA in urine ([1]; single SC bolus 0.001 mg): No API-MA was detected; Greatest percent decrease from baseline in PSA, individual patients ([2]; month 1, day 29, 6 mg dose group): 8% and 19%; Greatest percent decrease from baseline in PSA, individual patients ([2]; month 1, day 29, 12 mg dose group): 25% and 62%; Greatest percent decrease from baseline in PSA, individual patients ([2]; month 1, day 29, 24 mg dose group): 88% and 74% and 79%; Greatest reduction in PSA ([2]; month 2 day 29, a patient in the 24 mg dose group): 91%; IC50 [3]: 0.23 nM; Time of gonadotropin peak after bolus ([4]; 0.1 mg SC bolus on day 1): 24 h; Serum LH and FSH concentrations during prolonged infusion ([4]; 13-day SC infusion 0.01 to 1.0 mg/day): declined to values below baseline; Time of LH and FSH return to baseline values postdose ([4]; after 13-day SC infusion): ≤ 7 days; IC50 [5]: > 7.78 nM; Distribution ratio into blood cells ([6]; 0.01 μg/mL API-FB): 7.8%; Distribution ratio into blood cells ([6]; 0.1 μg/mL API-FB): 8.0%; Distribution ratio into blood cells ([6]; 1 μg/mL API-FB): 7.1%; Distribution ratio into blood cells ([6]; 10 μg/mL API-FB): 4.8%

Question: With `CNC(=N)NCCC[C@H](NC(=O)[C@H](CC(C)C)NC(=O)NNC(=O)[C@H](Cc1ccccc1)NC(=O)[C@@H](NC(=O)[C@H](CC(N)=O)NC(=O)[C@@H]1C[C@@H](O)CN1C(=O)[C@@H](Cc1ccc(O)cc1)NC(C)=O)[C@@H](C)O)C(=O)N[C@@H](Cc1c[nH]c2ccccc12)C(N)=O` [Compound 1, 2-(N-Acetyl-D-tyrosyl-trans-4-hydroxy-L-prolyl-L-asparaginyl-L-threonyl-L-phenylalanyl)-hydrazinocarbonyl-L-leucyl-Nω-methyl-L-arginyl-L-tryptophanamide] (Ac-[dY][Hyp]NTF[azaGly]L[Arg(Me)]W-NH2) as the compound, how does the bioavailability [7] read?
Answer: Its bioavailability is 66.3%.

— US11013780B2, “Methods of treating female infertility” (Myovant Sciences GmbH, priority 2016, dated 2021)
